Results reported in patent US10954513B2, “RNA-guided transcriptional regulation and methods of using the same for the treatment of back pain” (UNIVERSITY OF UTAH RESEARCH FOUNDATION, priority 2015, dated 2021).
Values belong to the substance of their own block, whether it stands above or below them.

Key:
[1] = test system: TNFR1; assay: Human NP cell CRISPRi: TNFR1 knockdown (qRT-PCR); format: cell-based; conditions: primary human NP cells
Description: Quantitative RT-PCR was performed to identify TNFR1 knockdown in these primary human NP cells. Additionally, flow-cytometry was performed to determine transduction efficiency in human NP cells.

[2] = test system: TNFR1; assay: Guide RNA screening in HEK293T cells (qPCR), TNFR1; format: cell-based, human; conditions: HEK293T cells expressing dCas9-KRAB, 48 hours post transfection, relative to non-target gRNA
Text: (§1) Using the UCSC genome browser (GRCh37/hg19), the 5-UTR and the promoter region, 1000 base pairs upstream were selected and input into the CRISPR design tool (crispr.mit.edu). This tool outputs 20 bp gRNAs that are followed on their 3′ end by the PAM sequence NGG, which is specific to the CRISPR-Cas9 system derived from Streptococcus pyogenes. Additionally, the CRISPR design tool scores the potential gRNA sequences based on the number of off-target sites they have and how many are within genes (e.g., higher score means less off-target sites). […]
(§2) Total RNA was harvested from cells using Purelink RNA mini kit (Ambion). […] Changes in gene expression were expressed as fold changes in mRNA expression relative to the nontarget control, and normalized to GAPDH mRNA expression, using the ΔΔCt method.
(§3) HEK293T cells stably expressing dCas9-KRAB GFP were seeded in 6-well plates at a density of 600,000 cells/well in DMEM-HG with 10% FBS. […] Subsequently each sample was then run through taqman qPCR using primers for TNFRSF1A or IL1R1 and housekeeping gene GAPDH to quantify downregulation of each gene by each guide. Gene downregulation was quantified using the ΔΔCt method to characterize fold change relative non-target gRNA expressing cells.

[3] = test system: NF-κB activity in HEK293T cells; assay: NF-κB activity assay in HEK293T cells dosed with TNF-α; format: cell-based, human
Description: HEK293T cells and hADMSCs were transduced with the earlier mentioned NF-κB reporter vector and analyzed for changes in NF-κB activity in response to dosing cells with TNF-α/IL-1β (RnD systems, ProSpec). To further describe, cells expressing the NF-κB reporter were plated in white 96-well plates (HEK293T cells at 25,000 cells/well and hADMSCs at 5000 cells/well) and allowed to attach overnight. The next day cells were dosed with the appropriate amounts of inflammatory cytokines (0, […], 1, and/or 10 ng/mL of TNF-α/IL-1β) for 24 hours. At 24 hours luminescence corresponding to NF-κB activity was measured in one set of cells using the bright glo assay (Promega) and cell number was measured on another set of cells under the same treatment using the real-time glo assay (Promega). Changes in NF-κB activity were quantified as a fold change in luminescence relative to the no dose control for each cell type, with NF-κB activity normalized to cell number.

[4] = test system: IL1R1; assay: Guide RNA screening in HEK293T cells (qPCR), IL1R1; format: cell-based, human; conditions: HEK293T cells expressing dCas9-KRAB, 48 hours post transfection, relative to non-target gRNA
Text: as §1, §2, §3

[5] = target: AKAP 150 (rat) (UniProt P24587); assay: cell-based or functional assay
[6] = target: human IL-6 (human) (UniProt P05231); assay: cell-based or functional assay
UniProt P05231, sequence (P05231 30-212 limits assumed): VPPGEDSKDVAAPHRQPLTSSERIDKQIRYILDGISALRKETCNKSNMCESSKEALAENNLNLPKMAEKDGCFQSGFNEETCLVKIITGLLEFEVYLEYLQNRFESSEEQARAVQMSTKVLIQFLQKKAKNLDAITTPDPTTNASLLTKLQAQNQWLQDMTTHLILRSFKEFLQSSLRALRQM

UniProt P24587, sequence (P24587 whole entry): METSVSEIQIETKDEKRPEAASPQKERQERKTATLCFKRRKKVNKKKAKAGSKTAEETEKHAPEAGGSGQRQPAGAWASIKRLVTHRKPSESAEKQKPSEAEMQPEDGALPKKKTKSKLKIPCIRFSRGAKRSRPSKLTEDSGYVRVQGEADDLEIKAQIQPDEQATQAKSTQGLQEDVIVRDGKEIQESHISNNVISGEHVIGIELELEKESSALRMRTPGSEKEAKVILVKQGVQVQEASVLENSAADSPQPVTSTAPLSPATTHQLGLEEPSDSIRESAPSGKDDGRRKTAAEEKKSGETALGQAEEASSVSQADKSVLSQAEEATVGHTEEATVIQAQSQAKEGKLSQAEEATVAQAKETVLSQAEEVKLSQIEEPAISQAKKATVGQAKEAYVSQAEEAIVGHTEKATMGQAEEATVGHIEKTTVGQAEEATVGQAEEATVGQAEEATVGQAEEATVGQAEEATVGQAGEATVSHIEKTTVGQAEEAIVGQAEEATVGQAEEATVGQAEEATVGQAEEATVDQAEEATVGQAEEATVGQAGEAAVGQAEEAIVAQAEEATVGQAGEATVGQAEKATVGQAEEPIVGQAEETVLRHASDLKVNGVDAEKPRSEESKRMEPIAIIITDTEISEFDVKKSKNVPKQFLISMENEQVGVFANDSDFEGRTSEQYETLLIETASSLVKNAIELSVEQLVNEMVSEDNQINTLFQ

Substance: 5′-AUAAGCGUCCGACACAUGAU-3′ (expressed or natural sequence) [gRNA 4 for TNFR1, 82]
- TNFR1 knockdown in NP cells ([1]; with dCas9-KRAB): 55%
- TNFR1 knockdown in NP cells ([1]; with dCas9 alone): no knockdown

Substance: 5′-CAGUGUUGCAACAGCGGGAC-3′ (expressed or natural sequence) [gRNA 1 for TNFR1, 79]
- TNFR1 gene downregulation [2]: up to 87%
- NF-κB activity at lowest dose ([3]; 0.15 ng/mL TNF-α): no significant increase in NF-κB activity
- decreases in NF-κB activity ([3]; 24 hours of dosing with 0, 0.15, 1, and 10 ng/mL TNF-α): up to 95%

Substance: 5′-GGAGUCGCCAACUCAAUUCG-3′ (expressed or natural sequence) [gRNA 1 for IL1R1, 84]
- IL1R1 gene downregulation [4]: 67%

Substance: AKAP inhibitor peptide St-Ht31 (Promega)
- percentage of neurons firing at 39° C. in degenerative IVD conditioned media [5]: 15.5%

Next, values leading:

- percentage of neurons firing at 39° C. in degenerative IVD conditioned media [5]: 61.9%
Substance: control peptide St-Ht31P (Promega)

- T50 of neuron firing (Boltzmann fit) [6]: 38.2 ° C.
- maximum firing response of DRG neurons [6]: 66%
Substance: mouse isotype control antibody (Life Technologies)
